Publication PMC3997483, “Aminostyrylbenzofuran Directly Reduces Oligomeric Amyloid-β and Reverses Cognitive Deficits in Alzheimer Transgenic Mice” (PLoS ONE, 2014)

Test system: SD rats
Test: 2-week repeated oral dose toxicity study
Format: in vivo
Settings: for Abnormal gross findings of necropsy (changed animals / total) / Basophils / Body Weight (at necropsy) / Brain weight / CH / CHCM / Eosinophils / HDW / Heart weight / Hematocrit / Hemoglobin / LUC / Left adrenal weight / Left kidney weight / Left testis weight / Liver weight / Lung weight / Lympocytes / MCH / MCHC / MCV / MPV / Monocytes / Mortality (dead animals / total number of animals) / Neutrophils / Platelet / RBC / RDW / Rate body weight / brain / Rate body weight / heart / Rate body weight / left adrenal / Rate body weight / left kidney / Rate body weight / left testis / Rate body weight / liver / Rate body weight / lung / Rate body weight / right adrenal / Rate body weight / right kidney / Rate body weight / right testis / Rate body weight / spleen / Rate body weight / thymus / Retic / Right adrenal weight / Right kidney weight / Right testis weight / Spleen weight / Symptomatic signs / Thymus weight / WBC: 2 weeks
Method: KMS88009 was orally administered once a day by gavage for 14 consecutive days at dose level of 0 (vehicle), 100, 300 and 1,000 mg/kg (n = 5 per group). […] Organs were collected at necropsy; adrenal, kidney, thymus, spleen, heart, lung, liver, testis and brain. The absolute organ weights were measured and the organs-to-body weight ratios were calculated. Blood samples for hematological evaluation were collected from vein of animals under ether anesthesia. Food was withheld overnight before necropsy and blood collections. EDTA was used as an anticoagulant for hematology samples. White blood cell (WBC), red blood cell (RBC), hemoglobin concentration (HGB), hematocrit (HCT), mean corpuscular volume (MCV), mean corpuscular hemoglobin (MCH), mean corpuscular hemoglobin concentration (MCHC), cell hemoglobin concentration mean (CHCM), cell hemoglobin (CH), red cell distribution width (RDW), hemoglobin distribution width (HDW), platelet count (PLT), mean platelet volume (MPV) and reticulocyte were measured by a hematological autoanalyzer (ADVIA 120, Bayer, USA). To get the serum for biochemical analyses, blood samples in a separation tube were centrifuged at 4,000 rpm for 10 min on the day of necropsy. The serum was kept frozen at -70°C until analysis. Sodium citrate was used as an anticoagulant for biochemical analyses. Serum biochemical parameters including aspartate aminotransferase (AST), alanine aminotransferase (ALT), alkaline phosphatase (ALP), total bilirubin (T-Bil), albumin, total protein (TP), albumin/globulin ratio (A/G ratio), glucose, total cholesterol (CHO), triglyceride (TG), lactate dehydrogenase (LDH), creatine kinase (CK), blood urea nitrogen (BUN), creatinine (CRE), blood urea nitrogen/creatinine ratio (B/C ratio), Na^+, K^+ and Cl^- were evaluated by an autoanalyzer (Shimadzu CL-7200, Shimadzu Co., Japan).
All data for single and 2-week repeated oral dose toxicity studies were expressed as the mean ± SD Difference between control and treated groups were evaluated with one-way analysis of variance (ANOVA) followed by Dunnett's test. Value P<0.05 was taken as being statistically significant. Statistical analyses were performed using GraphPad Prism software (USA).

COc1ccc2cc(C=Cc3ccc(N(C)C)cc3)oc2c1 [KMS88009, 6-methoxy-2-(4-dimethylaminostyryl) benzofuran]
no-observed-adverse-effect-level (SD rats, 2-week repeated oral administration): over 1,000 mg/kg | Abnormal gross findings of necropsy (changed animals / total) (rats PO 100 mg/kg/day): 0 / 5 | Basophils (rats PO 100 mg/kg/day): 0.02 ± 0.01 x10^3/μL | Body Weight (at necropsy) (rats PO 100 mg/kg/day): 316.188 ± 16.093 g | Brain weight (rats PO 100 mg/kg/day): 1.948 ± 0.032 g | CH (rats PO 100 mg/kg/day): 20.3 ± 0.4 pg | CHCM (rats PO 100 mg/kg/day): 34.0 ± 0.4 g/dL | Eosinophils (rats PO 100 mg/kg/day): 0.07 ± 0.08 x10^3/μL | HDW (rats PO 100 mg/kg/day): 2.22 ± 0.08 g/dL | Heart weight (rats PO 100 mg/kg/day): 1.067 ± 0.098 g | Hematocrit (rats PO 100 mg/kg/day): 43.2 ± 2.6% | Hemoglobin (rats PO 100 mg/kg/day): 14.3 ± 1.0 g/dL | LUC (rats PO 100 mg/kg/day): 0.03 ± 0.02 x10^3/μL | Left adrenal weight (rats PO 100 mg/kg/day): 0.027 ± 0.005 g | Left kidney weight (rats PO 100 mg/kg/day): 1.279 ± 0.083 g | Left testis weight (rats PO 100 mg/kg/day): 1.440 ± 0.114 g | Liver weight (rats PO 100 mg/kg/day): 10.988 ± 0.881 g | Lung weight (rats PO 100 mg/kg/day): 1.212 ± 0.077 g | Lympocytes (rats PO 100 mg/kg/day): 6.64 ± 1.79 x10^3/μL | MCH (rats PO 100 mg/kg/day): 19.8 ± 0.5 pg | MCHC (rats PO 100 mg/kg/day): 33.1 ± 0.5 g/dL | MCV (rats PO 100 mg/kg/day): 59.7 ± 1.3 fL | MPV (rats PO 100 mg/kg/day): 7.66 ± 0.2 fL | Monocytes (rats PO 100 mg/kg/day): 0.12 ± 0.03 x10^3/μL | Mortality (dead animals / total number of animals) (rats PO 100 mg/kg/day): 0 / 5 | Neutrophils (rats PO 100 mg/kg/day): 1.74 ± 0.68 x10^3/μL | Platelet (rats PO 100 mg/kg/day): 1283 ± 239 x10^3/μL | RBC (rats PO 100 mg/kg/day): 7.25 ± 0.46 x10^6/μL | RDW (rats PO 100 mg/kg/day): 12.0 ± 0.3% | Rate body weight / brain (rats PO 100 mg/kg/day): 0.617 ± 0.026% | Rate body weight / heart (rats PO 100 mg/kg/day): 0.337 ± 0.024% | Rate body weight / left adrenal (rats PO 100 mg/kg/day): 0.009 ± 0.002% | Rate body weight / left kidney (rats PO 100 mg/kg/day): 0.404 ± 0.009% | Rate body weight / left testis (rats PO 100 mg/kg/day): 0.456 ± 0.036% | Rate body weight / liver (rats PO 100 mg/kg/day): 3.473 ± 0.154% | Rate body weight / lung (rats PO 100 mg/kg/day): 0.384 ± 0.031% | Rate body weight / right adrenal (rats PO 100 mg/kg/day): 0.008 ± 0.001% | Rate body weight / right kidney (rats PO 100 mg/kg/day): 0.414 ± 0.026% | Rate body weight / right testis (rats PO 100 mg/kg/day): 0.459 ± 0.042% | Rate body weight / spleen (rats PO 100 mg/kg/day): 0.230 ± 0.048% | Rate body weight / thymus (rats PO 100 mg/kg/day): 0.205 ± 0.022% | Retic (rats PO 100 mg/kg/day): 324.8 ± 18.9 ^* x10^3/μL | Right adrenal weight (rats PO 100 mg/kg/day): 0.025 ± 0.002 g | Right kidney weight (rats PO 100 mg/kg/day): 1.310 ± 0.101 g | Right testis weight (rats PO 100 mg/kg/day): 1.450 ± 0.133 g | Spleen weight (rats PO 100 mg/kg/day): 0.731 ± 0.188 g | Symptomatic signs (rats PO 100 mg/kg/day): - | Thymus weight (rats PO 100 mg/kg/day): 0.649 ± 0.073 g | WBC (rats PO 100 mg/kg/day): 8.62 ± 1.70 x10^3/μL | Body weight (rats PO 100 mg/kg/day, day 1): 227.6 ± 7.8 g | Body weight (rats PO 100 mg/kg/day, day 4): 253.1 ± 7.0 g | Body weight (rats PO 100 mg/kg/day, day 8): 297.2 ± 9.3 g | Body weight (rats PO 100 mg/kg/day, day 11): 321.2 ± 13.1 g | Body weight (rats PO 100 mg/kg/day, day 14): 344.4 ± 17.1 g | Abnormal gross findings of necropsy (changed animals / total) (rats PO 300 mg/kg/day): 0 / 5 | Basophils (rats PO 300 mg/kg/day): 0.01 ± 0.01 x10^3/μL | Body Weight (at necropsy) (rats PO 300 mg/kg/day): 312.382 ± 14.169 g | Brain weight (rats PO 300 mg/kg/day): 1.680 ± 0.211 g | CH (rats PO 300 mg/kg/day): 20.4 ± 0.7 pg | CHCM (rats PO 300 mg/kg/day): 34.2 ± 0.3 g/dL | Eosinophils (rats PO 300 mg/kg/day): 0.03 ± 0.01 x10^3/μL | HDW (rats PO 300 mg/kg/day): 2.28 ± 0.12 g/dL | Heart weight (rats PO 300 mg/kg/day): 1.002 ± 0.038 g | Hematocrit (rats PO 300 mg/kg/day): 41.4 ± 1.9% | Hemoglobin (rats PO 300 mg/kg/day): 13.9 ± 0.7 g/dL | LUC (rats PO 300 mg/kg/day): 0.02 ± 0.01 x10^3/μL | Left adrenal weight (rats PO 300 mg/kg/day): 0.026 ± 0.004 g | Left kidney weight (rats PO 300 mg/kg/day): 1.237 ± 0.082 g | Left testis weight (rats PO 300 mg/kg/day): 1.515 ± 0.189 g | Liver weight (rats PO 300 mg/kg/day): 10.601 ± 0.687 g | Lung weight (rats PO 300 mg/kg/day): 1.214 ± 0.128 g | Lympocytes (rats PO 300 mg/kg/day): 3.98 ± 0.96 x10^3/μL | MCH (rats PO 300 mg/kg/day): 20.0 ± 0.6 pg | MCHC (rats PO 300 mg/kg/day): 33.4 ± 0.4 g/dL | MCV (rats PO 300 mg/kg/day): 59.7 ± 1.5 fL | MPV (rats PO 300 mg/kg/day): 7.84 ± 0.4 fL | Monocytes (rats PO 300 mg/kg/day): 0.08 ± 0.02 x10^3/μL | Mortality (dead animals / total number of animals) (rats PO 300 mg/kg/day): 0 / 5 | Neutrophils (rats PO 300 mg/kg/day): 0.84 ± 0.21 x10^3/μL | Platelet (rats PO 300 mg/kg/day): 1309 ± 50 x10^3/μL | RBC (rats PO 300 mg/kg/day): 6.93 ± 0.26 x10^6/μL | RDW (rats PO 300 mg/kg/day): 11.9 ± 0.4% | Rate body weight / brain (rats PO 300 mg/kg/day): 0.537 ± 0.059% | Rate body weight / heart (rats PO 300 mg/kg/day): 0.321 ± 0.011% | Rate body weight / left adrenal (rats PO 300 mg/kg/day): 0.008 ± 0.001% | Rate body weight / left kidney (rats PO 300 mg/kg/day): 0.396 ± 0.020% | Rate body weight / left testis (rats PO 300 mg/kg/day): 0.487 ± 0.075% | Rate body weight / liver (rats PO 300 mg/kg/day): 3.393 ± 0.133% | Rate body weight / lung (rats PO 300 mg/kg/day): 0.389 ± 0.037% | Rate body weight / right adrenal (rats PO 300 mg/kg/day): 0.008 ± 0.001% | Rate body weight / right kidney (rats PO 300 mg/kg/day): 0.406 ± 0.008% | Rate body weight / right testis (rats PO 300 mg/kg/day): 0.455 ± 0.023% | Rate body weight / spleen (rats PO 300 mg/kg/day): 0.201 ± 0.037% | Rate body weight / thymus (rats PO 300 mg/kg/day): 0.196 ± 0.036% | Retic (rats PO 300 mg/kg/day): 277.8 ± 39.6 x10^3/μL | Right adrenal weight (rats PO 300 mg/kg/day): 0.025 ± 0.004 g | Right kidney weight (rats PO 300 mg/kg/day): 1.266 ± 0.035 g | Right testis weight (rats PO 300 mg/kg/day): 1.420 ± 0.086 g | Spleen weight (rats PO 300 mg/kg/day): 0.629 ± 0.130 g | Symptomatic signs (rats PO 300 mg/kg/day): - | Thymus weight (rats PO 300 mg/kg/day): 0.613 ± 0.115 g | WBC (rats PO 300 mg/kg/day): 4.95 ± 1.05 x10^3/μL | Body weight (rats PO 300 mg/kg/day, day 1): 227.8 ± 7.1 g | Body weight (rats PO 300 mg/kg/day, day 4): 250.5 ± 9.9 g | Body weight (rats PO 300 mg/kg/day, day 8): 294.2 ± 14.6 g
